In patent US20030212123A1, “COX-2 selective carprofen for treating pain and inflammation in dogs” (Pfizer Inc., priority 1997, published 2003):
Where “and” joins values, the source holds several entries; their conditions need not be identical. Equal values may be shown once. Read-outs that look alike come from different tables or passages of the source.

What was measured:
[1] = biological target: T1, canine COX-1 (Canis lupus familiaris, UniProt Q8HZR1); experiment: Canine COX-1 activity: washed canine platelets, A23187-stimulated TXB2 by EIA; type: cell-based, dog; conditions: results of repeated tests averaged
T1 construct: from tissue; host or cells: washed platelets from donor dog blood
T1 sequence (Q8HZR1 28-603): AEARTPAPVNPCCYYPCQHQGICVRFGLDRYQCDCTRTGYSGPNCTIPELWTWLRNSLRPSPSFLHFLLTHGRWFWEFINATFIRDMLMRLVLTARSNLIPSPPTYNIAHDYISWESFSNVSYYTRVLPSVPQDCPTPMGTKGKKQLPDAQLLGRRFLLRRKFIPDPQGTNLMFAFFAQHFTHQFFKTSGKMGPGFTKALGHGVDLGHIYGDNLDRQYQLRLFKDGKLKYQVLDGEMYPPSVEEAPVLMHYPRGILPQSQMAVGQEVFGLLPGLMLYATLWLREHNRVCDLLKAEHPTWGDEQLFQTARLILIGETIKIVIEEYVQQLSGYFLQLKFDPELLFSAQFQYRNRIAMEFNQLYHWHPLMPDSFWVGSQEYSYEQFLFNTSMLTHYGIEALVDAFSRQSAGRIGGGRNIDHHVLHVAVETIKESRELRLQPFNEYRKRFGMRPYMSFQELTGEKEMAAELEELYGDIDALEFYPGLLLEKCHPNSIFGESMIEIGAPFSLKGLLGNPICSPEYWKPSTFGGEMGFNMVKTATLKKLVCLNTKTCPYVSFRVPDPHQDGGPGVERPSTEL
Description: Protocol for Evaluation of Canine COX-1 Activity
Test drug compounds were solubilized and diluted the day before the assay was to be conducted with 0.1 mL of DMSO/9.9 mL of Hank's balanced salts solution (HBSS), and stored overnight at 4° C. On the day that the assay was carried out, citrated blood was drawn from a donor dog, centrifuged at 190×g for 25 min at room temperature, and the resulting platelet-rich plasma was then transferred to a new tube for further procedures. The platelets were washed by centrifuging at 1500×g for 10 min at room temperature. The platelets were washed with platelet buffer comprising Hank's buffer (Ca free) with 0.2% bovine serum albumin (BSA) and 20 mM HEPES. […] Then, 100 μl of canine washed platelets were added and the samples were incubated at 37° C. for 15 min, after which the reaction was stopped by adding 20 μl of 77 mM EDTA. The plates were then centrifuged at 2000×g for 10 min at […], after which 50 μl of supernatant was assayed for thromboxane B2 (TXB2) by enzyme-immunoassay (EIA).

[2] = biological target: T2, canine COX-2 (Canis lupus familiaris, UniProt Q8SPQ9); experiment: Canine COX-2 activity: LPS-treated DH82 canine histocytoma cells, PGE2 by EIA; type: cell-based, dog
T2 construct: host or cells: DH82 canine histocytoma cells, LPS-treated overnight
T2 sequence (Q8SPQ9 18-604): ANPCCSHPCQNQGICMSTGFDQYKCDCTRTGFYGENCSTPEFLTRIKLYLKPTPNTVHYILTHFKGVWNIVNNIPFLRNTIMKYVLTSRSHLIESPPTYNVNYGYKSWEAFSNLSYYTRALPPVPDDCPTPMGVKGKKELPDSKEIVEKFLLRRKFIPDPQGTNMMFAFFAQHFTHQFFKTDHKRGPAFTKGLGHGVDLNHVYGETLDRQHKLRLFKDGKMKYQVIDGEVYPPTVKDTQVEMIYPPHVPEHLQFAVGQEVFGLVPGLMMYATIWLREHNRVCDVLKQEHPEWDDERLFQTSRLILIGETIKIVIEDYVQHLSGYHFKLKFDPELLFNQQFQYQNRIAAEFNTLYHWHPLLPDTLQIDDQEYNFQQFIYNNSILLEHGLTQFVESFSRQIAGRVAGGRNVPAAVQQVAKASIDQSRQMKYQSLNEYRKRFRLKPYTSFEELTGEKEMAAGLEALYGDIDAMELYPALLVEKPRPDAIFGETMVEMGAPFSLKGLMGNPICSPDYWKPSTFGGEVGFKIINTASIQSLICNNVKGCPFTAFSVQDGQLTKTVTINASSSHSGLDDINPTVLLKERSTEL
Description: Protocol for Evaluation of Canine COX-2 Activity
A canine histocytoma (macrophage-like) cell line from the American Type Culture Collection designated as DH82, was used in setting up the protocol for evaluating the COX-2 inhibition activity of various test drug compounds. There was added to flasks of these cells 10 μg/mL of LPS, after which the flask cultures were incubated overnight. The same test drug compound dilutions as described above for the COX-1 protocol were used for the COX-2 assay and were prepared the day before the assay was carried out. […] The test sample suspensions were incubated for 1 hr and then centrifuged at 1000 rpm for 10 min at 4° C., after which 50 μl aliquots of each test drug sample were delivered to EIA plates. The EIA was performed for prostaglandin E2 (PGE2), and the pg/mL concentration of PGE2 was calculated from the standard line included on each plate. […] The results were averaged, and a single COX-1:COX-2 ratio was calculated.

[3] = at equipotent anti-inflammatory activity with indomethacin, Holtsinger et al.; cited from earlier work
[4] = biological target: COX-2 (Canis lupus familiaris, UniProt Q8SPQ9); experiment: in vivo; conditions: for PGE2 Pg/mL/Well: individual dogs; for inhibition at 2 mg/kg / inhibition at 4 mg/kg: dog, po
Description: A zero-hour blood sample was collected from all dogs in the study prior to dosing, followed by 2- and 4-hour post-dose blood sample collections. Test tubes were prepared containing 2 μL of lipopolysaccharide (LPS) to give a 10 μg/mL final concentration. Untreated test tubes were used as controls. A 500 μL sample of blood was added to each of the above-described test tubes, after which they were incubated at 37° C. overnight. After incubation […] of EDTA was added to give a final concentration of 0.3%. The incubated samples were centrifuged at 4° C. and the resulting plasma sample of 200 μL was collected and stored at −20° C. in propylene 96-well plates. Enzyme immunoassay (EIA) kits available from Cayman were used to measure production of PGE2, with endpoint determination by colorimetry. Plasma samples were diluted to 1/750 for PGE2.

[5] = dog, in vivo, po
Description: Following oral dosing to dogs of an immediate release carprofen formulation at a dose of 2 mg/lb, plasma carprofen concentrations were above 10 μg/mL for approximately 10.5 hr. In accordance with the present invention, 2 mg/lb/day is within the range of preferred doses of carprofen.
Immediate release carprofen dosage forms containing doses of 1.8, 1.6, and 1.4 mg/lb maintain a plasma carprofen concentration above 10 μg/mL for 9.5 hrs, 8.5 hrs, and 7.5 hrs, respectively.

[6] = inspection of plot of plasma level vs % COX-2 inhibition (Example 3 data)

CC(C(=O)O)c1ccc2c(c1)[nH]c1ccc(Cl)cc12 (racemic) [Carprofen (rac.), 6-chloro-α-methyl-9H-carbazole-2-acetic acid]
IC50 [1]: 13.2 µM | IC50 [2]: 102 nM | ulcerogenic potential, times less than indomethacin [3]: 16 times | PGE2 Pg/mL/Well ([4]; 2 mg/kg PO tablet, 0-hour (pre-dose)): 293 Pg/mL/Well and 541 Pg/mL/Well and 409 Pg/mL/Well | PGE2 Pg/mL/Well ([4]; 4 mg/kg PO tablet, 0-hour (pre-dose)): 471 Pg/mL/Well and 393 Pg/mL/Well and 622 Pg/mL/Well | PGE2 Pg/mL/Well ([4]; 4 mg/kg PO tablet, 2-hour post-dose): 25 Pg/mL/Well and 21 Pg/mL/Well and 14 Pg/mL/Well | PGE2 Pg/mL/Well ([4]; 4 mg/kg PO tablet, 4-hour post-dose): 20 Pg/mL/Well and 25 Pg/mL/Well and 14 Pg/mL/Well | inhibition at 2 mg/kg ([4]; read-out: COX-2 activity Percent Inhibition, 2 mg/kg PO tablet, 2-hour, based on each dog's zero hour value): 88% | inhibition at 2 mg/kg ([4]; read-out: COX-2 activity Percent Inhibition, 2 mg/kg PO tablet, 4-hour, based on each dog's zero hour value): 77% | inhibition at 4 mg/kg ([4]; read-out: COX-2 activity Percent Inhibition, 4 mg/kg PO tablet, 2-hour, based on each dog's zero hour value): 95% | inhibition at 4 mg/kg ([4]; read-out: COX-2 activity Percent Inhibition, 4 mg/kg PO tablet, 4-hour, based on each dog's zero hour value): 96% | plasma carprofen concentration at which 80% COX-2 inhibition occurred [4, 6]: approximately 10 μg/mL | plasma carprofen concentration at which 90% COX-2 inhibition occurred [4, 6]: approximately 20 μg/mL | time plasma carprofen concentrations were above 10 μg/mL [5]: approximately 10.5 hr
